Test results from US20130288964A1, “Use of peptides for promoting wound healing” (priority 2008, published 2013).
Like-named read-outs stand apart in the source and are kept apart here. Where no end group is shown, it is not given here.

Experiments:
[1] = tested on: human buccal epithelial cell line TR146; assay: In vitro wound healing (scratch wound closure) experiments; format: cell-based; conditions: for Wound closure rel. clos. ± SD: closure approx. 16 h after wounding relative to negative control, synthetic peptides in SFM, * significant
Description: The human buccal epithelial cell line TR146 (Rupniak et al; J Natl Cancer Inst. 1985 October; 75(4):621-35) was kindly provided by Cancer Research UK. Cells were grown in Dulbecco's modified Eagle medium with 4.5 g/l glucose (Invitrogen), 10% FCS (HyClone) and […] penicillin, […] streptomycin, and 250 ng/ml amphotericinB (Antibiotic antimyotic solution, Sigma,), at 37° C., 95% humidity and 5% CO2. Cells were maintained until near confluence and then briefly treated with 0.25% trypsin-EDTA lx (Invitrogen) to detach them, counted in a hepacytometer and seeded into new flasks or multi-well plates at the required cell density of about 1.5×10×5 cells/well.
Wound assays were performed as previously described (Matthay et al., 1993, J Cell Sci. 106 (Pt 3):869-78). In brief, cells were grown in 12-well plates until confluence, and then were serum deprived for 24 hours in keratinocyte serum free medium (SFM (Invitrogen)). In each well a scratch was made in the cellular monolayer using a sterile tip. The wounded monolayer was washed with SFM to remove cellular debris, and the following conditions were applied: • (i) Whole saliva and salivary secretions applied in 30% (v/v) in SFM. As a negative control 30% (v/v) saliva buffer was used. • (ii) (ii) rhEGF (Invitrogen) as a positive control • (iii) rp-HPLC fractions containing salivary proteins; • (iv) synthetic peptides: the experiments with isolated proteins and synthetic peptides were performed in full SFM.
The width of the wound area was determined microscopically immediately after wound creation and at approximately 16 hours after wounding. The relative closure was calculated by relating the closure to that of the negative control.
For inhibitor studies; directly after wounding cells were exposed to inhibitors of ERK1/2 (U0126, 5 μM, LC Laboratories), EGFR (AG1478, 1 μM, Calbiochem), and p38 MAPK (SB203580, 5 μM; LC Laboratories). Experiments were done in quadruplicate and analyzed using One-way ANOVA to determine significance with additional LSD post hoc test, P<0.05 was considered significant.

[2] = Candicidal activity LC50 ± SD
Description: 2.3 Potency of Histatin induced wound closure, stereo-specificity of Histatin 2, candidacidal activities of the different histatins. Next the potency of the different Histatins in both wound healing as their candidacidal activities was studied. Histatins are known for their antimicrobial activity.
We tested synthesized Histatins 1, 2, 3, 5 and the enantiomer of Histatin 2 (designated D-Histatin 2) on wound closure and candidacidal activities. In the test concentrations of 1, 5, 10, 30 and 50 μg/ml of the peptides were tested.

epithelial cells = assay: Internalization of FITC labeled histatin in epithelial cells (microscopy); format: cell-based, human; conditions: FITC labeled histatin incubated two hours (data not shown)
Description: Microscope: Leica DM IL PLAN 4-40x magnification, 0.5 lens; camera: Leica DFC320; and acquisition software: Leica IM500. Images were quantified using Adobe Photoshop CS3. Additionally, brightness/contrast levels of the co-localization studies were altered with Adobe Photoshop CS3. FITC labeled histatin was incubated with the cells for two hours. PI was added to check for membrane disruptive dependent internalization. 100 mM Azide was used for 1 hour. Cells were trypsinized as described above. Co-localization studies were performed using Mitotracker (Invitrogen) and Lysotracker (Invitrogen) following manufacturer's instructions. In Candida Histatin 5 is internalized and associates with the energized mitochondrion. Given the abovementioned discrepancy between C. albicans and epithelial cells we were very interested whether histatins become internalized and where in the cells they accumulate. […] NaN3 inhibits the function of cytochrome c oxidase by binding irreversibly to the heme cofactor. Thus, NaN3 treatment lead us to conclude that the internalization energy dependent. […] Which, in addition to the stereo-specificity, is indicating a receptor mediated process. We used mitochondria and acidic lysosome specific markers to elucidate histatin's fate once it is internalized

Compound	Wound closure rel. clos. ± SD [1]	induction of wound closure ([1]; synthesized peptides, 1-50 μg/ml)	optimal concentration for wound closure ([1]; tested at 1, 5, 10, 30 and 50 μg/ml) [µg/mL]	CC50 ([2]; 1 mM PPB) [nM]	CC50 ([2]; SFM) [nM]	internalization into epithelial cells (epithelial cells)	relative wound closure ([1]; peptide concentration 1*10-3 μM, 1 = no peptide added (FIG. 4))	induction of wound closure ([1]; EGF 5 ng/ml)	induced wound closure with EGF receptor blocked ([1]; EGFR inhibitor AG1478 1 μM)	MAPK pathway dependence of induced wound closure ([1]; inhibitors U0126 5 μM (ERK1/2), SB203580 5 μM (p38 MAPK), FIG. 2)
CC(C)C[C@H](NC(=O)[C@H](Cc1ccc(O)cc1)NC(=O)[C@H](CC(N)=O)NC(=O)[C@H](CO)NC(=O)[C@H](CCCNC(=N)N)NC(=O)[C@H](Cc1ccc(O)cc1)NC(=O)CNC(=O)[C@H](CCCNC(=N)N)NC(=O)[C@H](Cc1c[nH]cn1)NC(=O)[C@H](CO)NC(=O)[C@H](Cc1c[nH]cn1)NC(=O)[C@H](Cc1c[nH]cn1)NC(=O)[C@H](CCCCN)NC(=O)[C@H](CCC(=O)O)NC(=O)[C@H](Cc1c[nH]cn1)NC(=O)[C@H](Cc1ccccc1)NC(=O)[C@H](CCCCN)NC(=O)[C@H](CCCNC(=N)N)NC(=O)[C@H](CCCCN)NC(=O)[C@H](Cc1ccc(O)cc1)NC(=O)CNC(=O)[C@H](Cc1c[nH]cn1)NC(=O)[C@H](Cc1c[nH]cn1)NC(=O)[C@H](CCCNC(=N)N)NC(=O)[C@H](CCCCN)NC(=O)[C@H](C)NC(=O)[C@H](Cc1c[nH]cn1)NC(=O)[C@H](CO)NC(=O)[C@@H](N)CC(=O)O)C(=O)N[C@@H](Cc1ccc(O)cc1)C(=O)N[C@@H](CC(=O)O)C(=O)N[C@@H](CC(N)=O)C(=O)O [Histatin 3]	1.21 ± 0.12*	induce wound closure	30 to 50	1100 ± 100	> 100000	are internalized				
C-HST1: cyclic peptide having the amino acid sequence according to SEQ. ID. NO. 4, Histatin 1 (DSHEKRHHGYRRKFHEKHHSHREFPFYGDYGSNYLYDN; also: cyclic (type and places not given here))							1.5			
EGF: epidermal growth factor; rhEGF (Invitrogen) as a positive control	1.41 ± 0.12*							able to induce wound closure	abolished the effect	p38^MAPK dependent
